The test system of one data set is SW620 xenograft. As to the kind of experiment: SW620 colorectal flank xenograft in nude mice. The following applies: 8 mg/kg IV, TIW for 21 days. It counts as in vivo. The source says:
FIG. 6A-6D show the evaluated in-vivo efficacy of Compound AA in a colorectal mouse flank xenograft models (HCT116, SW620). […] HCT-116 or SW620 cells (5×10^6 cells/mouse) were implanted in the rear flank of mail mice (6 weeks of age at the time of tumor implantation). On Day 20-23, mice were randomized for equivalent distribution of tumor volumes to treatment groups (n=5/group) and treated IV with vehicle, Compound AA (FIG. 6A, FIG. 6B) TIW for 21 days. Data are presented as mean tumor volume±SD. Body weight % changes in treated animals observed at end point (FIG. 6C, FIG. 6D). Animal xenograft models. MM1.S, HCT-116, SW620 cell lines were purchased from ATCC and used for xenograft model. The cells were cultured in RPMI medium (Sigma-Aldrich) supplemented with 10% fetal bovine serum (FBS) and divided for up to 5 passages. Shortly prior to injection, cell suspension was mixed with Matrigel at 1:[…]) and injected subcutaneously to the rear flank area of male nude athymic 6 weeks old mice to obtain administration of 5×10^6 cells/animal. On day 20-23, when tumor volume reached 100-150 mm^3, mice were randomized for equivalent distribution of tumor volumes to treatment groups (n=5/group) and treated via intravenous injection.

Data set [1] can be described thus: Kinetic solubility by differential UV absorbance. It counts as physicochemical. The note with it: aqueous buffer, kinetic from dmso stock; DMSO stock diluted in PBS, OD before and after centrifugation. As to the method:
FIG. 3A-3B depict the kinetic solubility of Compound B1 (FIG. 3A) and Compound E1 (FIG. 3B) as measured by differential UV absorbance of the compounds, as performed before and after centrifugation. Soluble concentrations were determined when OD was equivalent between centrifuged and non-centrifuged fractions. Compounds were dissolved from co-solvent stock, and further serially 2-fold diluted in PBS. OD was measured at the maximal absorbance for each compound before (BC) and after (AC) centrifugation, using Spark 20M, Tecan.
Kinetic solubility quantification. Compound B1/Compound E1 DMSO stock was diluted with PBS by serial 2-fold dilutions. Then, the samples were centrifuged for 5 minutes at 17,000 g to precipitate any insoluble compound. Each sample was tested at a single wave length (Compound B1 at […]; Compound E1 at […]) in duplicate before and after centrifugation to assess solubility of the compound. Soluble concentrations were determined when optical density (OD) was equivalent between centrifuged and non-centrifuged fractions.
Kinetic solubility of all Compounds was determined by differential UV absorbance before and after centrifugation. […] Solubility concentration was determined when OD was equivalent between centrifuged and non-centrifuged fractions (FIG. 3A-3B).

A further data set deals with SK-OV-3. Put plainly: NCI60 screen cytotoxicity. It counts as cell-based. The following applies: Homo sapiens, Ovarian cancer, read-out: Compound B1 EC50.
The subject of the next data set is MDA-MB-231. As to the kind of experiment: NCI60 screen cytotoxicity. It counts as cell-based. The note with it: Homo sapiens, Breast cancer, read-out: Compound B1 EC50.
Another data set concerns DU-145. Put plainly: NCI60 screen cytotoxicity. It counts as cell-based. The note with it: Homo sapiens, Prostate cancer, read-out: Compound B1 EC50.
In a further data set the test system is NCI-H522. Put plainly: NCI60 screen cytotoxicity. It counts as cell-based. The note with it: Homo sapiens, Lung cancer, read-out: Compound B1 EC50.
The next data set deals with HT-29. As to the kind of experiment: NCI60 screen cytotoxicity. Format: cell-based. The following applies: Homo sapiens, Colon cancer, read-out: Compound B1 EC50.
For the next data set, the system named is HCT-15. Put plainly: NCI60 screen cytotoxicity. The note with it: Homo sapiens, Colon cancer, read-out: Compound B1 EC50. Format: cell-based.
Another data set deals with SNB-19. As to the kind of experiment: NCI60 screen cytotoxicity. The following applies: Homo sapiens, CNS, read-out: Compound B1 EC50. Format: cell-based.
The subject of a further data set is U251. Put plainly: NCI60 screen cytotoxicity. It counts as cell-based. The following applies: Homo sapiens, U-251, CNS, read-out: Compound B1 EC50.
A further data set deals with NCI-H23. As to the kind of experiment: NCI60 screen cytotoxicity. Format: cell-based. The note with it: Homo sapiens, Lung cancer, read-out: Compound B1 EC50.
The subject of a further data set is MM1.S. Put plainly: Cell viability, ATPlite 1-step, MM cell lines. It counts as cell-based. The note with it: Homo sapiens; MM1.S MM cell line; 48 hours; read-out: Compound EC50. As to the method:
Cell Viability. The assay was performed only when cell viability was ≥90%. Cells were seeded in 96-well white clear bottom plates at concentration of 100,000 cells/mL and treated with serially diluted compounds or vehicle (DMSO) control in triplicates for 48 hours (h). Cell viability was determined using the ATPlite 1-step assay system (PerkinElmer). The method was based on the production of light caused by the reaction of ATP, which was a marker for cell viability. […] were added to the plates which were read in a plate reader for luminescence. The emitted light is proportional to the ATP concentration. Viability was calculated as the percent of viable cells from control vehicle-treated cells. EC50 was calculated using Prism software.
Potency of compounds were assessed by viability assay.

A further data set relates to MDA-MB-468. Put plainly: NCI60 screen cytotoxicity. Format: cell-based. The note with it: Homo sapiens, Breast cancer, read-out: Compound B1 EC50.

In brackets after ≈: the same amount, converted by molar mass. Bounds are passed on as bounds.

As to `CN(C)CCCS(=O)(=O)N1C/C(=C\c2ccc(C#N)cc2)C(=O)/C(=C/c2ccc(C#N)cc2)C1` [Compound AA], in the data set on SW620 xenograft, the Animal body weight entry is “not considerably affected” and the “tumor growth compared to vehicle control” value is “significantly inhibited tumor growth”.
On to `CN(C)CC(=O)NCC(=O)N1C/C(=C\c2ccc(C#N)cc2)C(=O)/C(=C/c2ccc(C#N)cc2)C1` [Compound B1], for which, in data set [1], the solubility (kinetic) amounted to 50 µM (≈ 23.4 µg/mL). In addition, the EC50 in the data set with SK-OV-3 was below 0.3 µM; in the data set on MDA-MB-231, below 0.3 µM; in the data set with DU-145, below 0.3 µM; in the data set with NCI-H522 it was below 0.3 µM; with HT-29, 0.3 to 1 µM; with HCT-15, below 0.3 µM. For the same molecule, the EC50 in the data set on SNB-19 is 0.3 to 1 µM; in the data set on U251 it was below 0.3 µM; in the data set with NCI-H23, below 0.3 µM; with MM1.S, below 0.3 µM; in the data set on MDA-MB-468 it was below 0.3 µM.

These data come from patent US20200399262A1, “COMPOUNDS FOR INHIBITING PROTEIN DEGRADATION AND METHODS OF USE THEREOF IN THE TREATMENT OF CANCER” (PI Therapeutics Ltd, priority 2018, published 2020).
